# Measured values reported in ChEMBL document CHEMBL5649169 (ChemMedChem, 2018).
# Key:
# [1] = biological target: Transmembrane protein 43 (Homo sapiens) (UniProt Q9BTV4); note: assay method not described here
# [2] = biological target: Poly(U)-binding-splicing factor PUF60 (Homo sapiens) (UniProt Q9UHX1); note: assay method not described here
# [3] = biological target: Histone acetyltransferase type B catalytic subunit (Homo sapiens) (UniProt O14929); note: assay method not described here
# Ephrin type-B receptor 4 = Ephrin type-B receptor 4 (Homo sapiens, UniProt P54760); assay type: cell-based, HEK293T
# [4] = biological target: Nck-associated protein 1-like (Homo sapiens) (UniProt P55160); note: assay method not described here
# [5] = biological target: Protein RRP5 homolog (Homo sapiens) (UniProt Q14690); note: assay method not described here
# [6] = biological target: Proteasome subunit alpha type-1 (Homo sapiens) (UniProt P25786); note: assay method not described here
# [7] = biological target: Transketolase (Homo sapiens) (UniProt P29401); note: assay method not described here
# [8] = biological target: Cyclin-dependent kinase 4 (Homo sapiens) (UniProt P11802); note: assay method not described here
# [9] = biological target: Acyl-CoA dehydrogenase family member 10 (Homo sapiens) (UniProt Q6JQN1); note: assay method not described here
# [10] = biological target: UBX domain-containing protein 1 (Homo sapiens) (UniProt Q04323); note: assay method not described here
# UBX domain-containing protein 1 (Homo sapiens), sequence (Q04323 whole entry, the tested form may be a part): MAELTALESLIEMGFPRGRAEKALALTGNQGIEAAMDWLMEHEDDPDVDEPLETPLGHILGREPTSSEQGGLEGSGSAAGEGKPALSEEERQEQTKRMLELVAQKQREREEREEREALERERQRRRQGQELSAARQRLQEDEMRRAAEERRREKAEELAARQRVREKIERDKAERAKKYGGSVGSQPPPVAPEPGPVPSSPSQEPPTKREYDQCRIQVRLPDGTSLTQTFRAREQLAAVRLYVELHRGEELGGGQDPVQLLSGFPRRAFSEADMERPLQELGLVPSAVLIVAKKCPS
# [11] = biological target: Adenosine 5'-monophosphoramidase HINT1 (Homo sapiens) (UniProt P49773); note: assay method not described here
# Adenosine 5'-monophosphoramidase HINT1 (Homo sapiens), sequence (P49773 whole entry): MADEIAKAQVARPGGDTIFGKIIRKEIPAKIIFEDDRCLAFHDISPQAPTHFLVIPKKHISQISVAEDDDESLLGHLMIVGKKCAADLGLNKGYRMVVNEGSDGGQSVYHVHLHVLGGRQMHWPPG
# [12] = biological target: RNA cytosine C(5)-methyltransferase NSUN2 (Homo sapiens) (UniProt Q08J23); note: assay method not described here
# [13] = biological target: DNA damage-binding protein 1 (Homo sapiens) (UniProt Q16531); note: assay method not described here
# [14] = biological target: Cytoplasmic FMR1-interacting protein 1 (Homo sapiens) (UniProt Q7L576); note: assay method not described here
# Cyclin-T2 (Homo sapiens) = Cyclin-T2 (Homo sapiens) (UniProt O60583); note: assay method not described here
# [15] = biological target: Atypical kinase COQ8A, mitochondrial (Homo sapiens) (UniProt Q8NI60); note: assay method not described here
# [16] = biological target: Src substrate cortactin (Homo sapiens) (UniProt Q14247); note: assay method not described here
# Src substrate cortactin (Homo sapiens), sequence (Q14247 whole entry): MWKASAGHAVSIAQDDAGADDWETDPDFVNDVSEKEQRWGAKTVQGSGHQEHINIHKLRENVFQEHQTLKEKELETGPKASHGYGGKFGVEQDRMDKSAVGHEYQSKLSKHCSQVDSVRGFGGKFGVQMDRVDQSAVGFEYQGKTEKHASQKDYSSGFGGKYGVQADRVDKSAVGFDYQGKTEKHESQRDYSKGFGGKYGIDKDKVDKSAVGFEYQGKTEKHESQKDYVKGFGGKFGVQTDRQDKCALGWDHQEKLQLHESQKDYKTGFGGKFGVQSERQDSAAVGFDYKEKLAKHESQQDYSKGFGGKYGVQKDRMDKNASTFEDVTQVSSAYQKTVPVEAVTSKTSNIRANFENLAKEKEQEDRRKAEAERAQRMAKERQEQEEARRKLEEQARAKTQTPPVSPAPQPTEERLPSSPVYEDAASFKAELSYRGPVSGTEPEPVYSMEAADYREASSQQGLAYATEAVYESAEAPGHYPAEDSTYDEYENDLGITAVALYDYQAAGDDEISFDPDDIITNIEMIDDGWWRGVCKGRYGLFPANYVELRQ
# [17] = biological target: Heterogeneous nuclear ribonucleoprotein U-like protein 2 (Homo sapiens) (UniProt Q1KMD3); note: assay method not described here
# Heterogeneous nuclear ribonucleoprotein U-like protein 2 (Homo sapiens), sequence (Q1KMD3 whole entry): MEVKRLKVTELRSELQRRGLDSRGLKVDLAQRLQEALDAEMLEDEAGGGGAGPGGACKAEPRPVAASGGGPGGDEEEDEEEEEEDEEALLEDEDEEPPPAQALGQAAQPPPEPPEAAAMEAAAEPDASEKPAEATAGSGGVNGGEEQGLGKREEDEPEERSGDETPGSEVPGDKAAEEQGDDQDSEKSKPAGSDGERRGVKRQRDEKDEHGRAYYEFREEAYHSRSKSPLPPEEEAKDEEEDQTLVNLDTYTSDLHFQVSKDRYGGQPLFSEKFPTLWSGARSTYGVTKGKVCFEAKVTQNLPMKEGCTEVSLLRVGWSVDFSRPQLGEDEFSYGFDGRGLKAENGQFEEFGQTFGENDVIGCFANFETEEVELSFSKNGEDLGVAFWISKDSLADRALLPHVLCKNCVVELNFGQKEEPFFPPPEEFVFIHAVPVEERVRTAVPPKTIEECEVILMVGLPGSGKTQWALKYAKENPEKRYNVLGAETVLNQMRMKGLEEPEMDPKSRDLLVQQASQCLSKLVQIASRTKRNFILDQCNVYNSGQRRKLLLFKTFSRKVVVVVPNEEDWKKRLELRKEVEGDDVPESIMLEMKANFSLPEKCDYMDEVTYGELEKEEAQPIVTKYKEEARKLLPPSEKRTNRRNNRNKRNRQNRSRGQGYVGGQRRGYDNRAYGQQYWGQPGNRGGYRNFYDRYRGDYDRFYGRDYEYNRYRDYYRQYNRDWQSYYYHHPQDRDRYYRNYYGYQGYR
# [18] = biological target: Trifunctional enzyme subunit beta, mitochondrial (Homo sapiens) (UniProt P55084); note: assay method not described here
# [19] = biological target: DNA replication licensing factor MCM4 (Homo sapiens) (UniProt P33991); note: assay method not described here
# Ephrin type-B receptor 3 = Ephrin type-B receptor 3 (Homo sapiens, UniProt P54753); experiment: Inhibition of Nano Luc-fused full length C-terminal EPHB3 (unknown origin) expressed in HEK293T cells using NanoGlo as substrate incubated for 2 hrs in presence of tracer by NanoBRET assay; assay type: cell-based
# Ephrin type-B receptor 3, sequence (P54753 whole entry, the tested form may be a part): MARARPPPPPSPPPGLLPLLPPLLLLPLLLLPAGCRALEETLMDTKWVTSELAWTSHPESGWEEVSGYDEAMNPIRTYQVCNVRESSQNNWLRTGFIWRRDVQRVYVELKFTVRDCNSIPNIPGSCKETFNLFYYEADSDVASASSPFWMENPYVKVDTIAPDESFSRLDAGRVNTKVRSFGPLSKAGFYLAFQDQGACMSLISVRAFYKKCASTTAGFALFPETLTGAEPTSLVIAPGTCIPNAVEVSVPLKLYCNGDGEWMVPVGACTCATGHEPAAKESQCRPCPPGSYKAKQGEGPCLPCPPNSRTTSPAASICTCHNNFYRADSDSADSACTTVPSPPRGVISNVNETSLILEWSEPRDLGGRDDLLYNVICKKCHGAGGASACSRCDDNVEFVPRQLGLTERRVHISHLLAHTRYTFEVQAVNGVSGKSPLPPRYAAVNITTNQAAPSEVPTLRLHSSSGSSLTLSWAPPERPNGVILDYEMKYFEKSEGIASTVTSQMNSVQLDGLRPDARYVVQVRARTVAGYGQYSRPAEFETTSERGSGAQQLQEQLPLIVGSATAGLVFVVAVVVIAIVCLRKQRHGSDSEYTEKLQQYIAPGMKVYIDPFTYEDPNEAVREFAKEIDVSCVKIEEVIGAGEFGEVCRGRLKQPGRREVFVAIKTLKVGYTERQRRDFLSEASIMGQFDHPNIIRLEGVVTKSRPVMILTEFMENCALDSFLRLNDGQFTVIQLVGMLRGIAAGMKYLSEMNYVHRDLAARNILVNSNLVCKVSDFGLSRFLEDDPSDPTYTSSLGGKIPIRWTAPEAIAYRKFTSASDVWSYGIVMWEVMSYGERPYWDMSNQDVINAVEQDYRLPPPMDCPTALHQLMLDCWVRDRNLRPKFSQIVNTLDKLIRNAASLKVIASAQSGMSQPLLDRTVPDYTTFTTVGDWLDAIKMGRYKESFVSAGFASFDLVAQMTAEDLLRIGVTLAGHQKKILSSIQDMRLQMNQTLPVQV
# [20] = biological target: Succinate dehydrogenase [ubiquinone] iron-sulfur subunit, mitochondrial (Homo sapiens) (UniProt P21912); note: assay method not described here
# Succinate dehydrogenase [ubiquinone] iron-sulfur subunit, mitochondrial (Homo sapiens), sequence (P21912 whole entry): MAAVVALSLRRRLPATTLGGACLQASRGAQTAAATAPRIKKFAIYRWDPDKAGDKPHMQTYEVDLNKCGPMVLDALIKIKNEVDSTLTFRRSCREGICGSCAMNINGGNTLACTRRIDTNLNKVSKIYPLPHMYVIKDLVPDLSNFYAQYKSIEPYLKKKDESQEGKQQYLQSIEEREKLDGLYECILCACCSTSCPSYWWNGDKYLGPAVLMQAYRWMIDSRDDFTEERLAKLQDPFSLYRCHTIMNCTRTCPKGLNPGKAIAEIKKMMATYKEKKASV
# [21] = biological target: Fructosamine-3-kinase (Homo sapiens) (UniProt Q9H479); note: assay method not described here
# [22] = biological target: HLA class I histocompatibility antigen, C alpha chain (Homo sapiens) (UniProt P10321); note: assay method not described here
# [23] = biological target: Serine/threonine-protein kinase LATS1 (Homo sapiens) (UniProt O95835); note: assay method not described here
# [24] = biological target: cAMP-dependent protein kinase catalytic subunit gamma (Homo sapiens) (UniProt P22612); note: assay method not described here
# [25] = biological target: E3 ubiquitin-protein ligase synoviolin (Homo sapiens) (UniProt Q86TM6); note: assay method not described here
# [26] = biological target: MAP kinase-activated protein kinase 5 (Homo sapiens) (UniProt Q8IW41); note: assay method not described here
# [27] = biological target: Flap endonuclease 1 (Homo sapiens) (UniProt P39748); note: assay method not described here
# Ephrin type-B receptor 2 = Ephrin type-B receptor 2 (Homo sapiens, UniProt P29323); experiment: Inhibition of Nano Luc-fused full length C-terminal EPHB2 (unknown origin) expressed in HEK293T cells using NanoGlo as substrate incubated for 2 hrs in presence of tracer by NanoBRET assay; assay type: cell-based
# [28] = biological target: Exosome complex component 10 (Homo sapiens) (UniProt Q01780); note: assay method not described here
# [29] = biological target: Phosphorylase b kinase gamma catalytic chain, liver/testis isoform (Homo sapiens) (UniProt P15735); note: assay method not described here
# Phosphorylase b kinase gamma catalytic chain, liver/testis isoform (Homo sapiens), sequence (P15735 whole entry, canonical isoform): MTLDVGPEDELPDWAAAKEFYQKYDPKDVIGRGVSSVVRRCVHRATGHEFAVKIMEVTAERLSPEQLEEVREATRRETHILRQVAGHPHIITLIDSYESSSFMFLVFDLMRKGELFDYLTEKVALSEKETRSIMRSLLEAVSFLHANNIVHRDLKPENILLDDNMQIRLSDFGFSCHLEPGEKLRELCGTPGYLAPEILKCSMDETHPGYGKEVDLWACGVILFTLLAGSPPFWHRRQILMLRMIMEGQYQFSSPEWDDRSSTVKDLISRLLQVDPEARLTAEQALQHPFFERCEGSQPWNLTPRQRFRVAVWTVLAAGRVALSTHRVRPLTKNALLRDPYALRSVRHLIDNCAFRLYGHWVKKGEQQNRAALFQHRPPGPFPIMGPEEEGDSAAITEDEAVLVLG
# [30] = biological target: Cell division cycle 7-related protein kinase (Homo sapiens) (UniProt O00311); note: assay method not described here
# [31] = biological target: Synaptic vesicle membrane protein VAT-1 homolog (Homo sapiens) (UniProt Q99536); note: assay method not described here
# [32] = biological target: Adenosylhomocysteinase (Homo sapiens) (UniProt P23526); note: assay method not described here
# [33] = biological target: Misshapen-like kinase 1 (Homo sapiens) (UniProt Q8N4C8); note: assay method not described here
# [34] = biological target: Ras GTPase-activating-like protein IQGAP1 (Homo sapiens) (UniProt P46940); note: assay method not described here
# [35] = biological target: RAC-gamma serine/threonine-protein kinase (Homo sapiens) (UniProt Q9Y243); note: assay method not described here
# RAC-gamma serine/threonine-protein kinase (Homo sapiens), sequence (Q9Y243 whole entry): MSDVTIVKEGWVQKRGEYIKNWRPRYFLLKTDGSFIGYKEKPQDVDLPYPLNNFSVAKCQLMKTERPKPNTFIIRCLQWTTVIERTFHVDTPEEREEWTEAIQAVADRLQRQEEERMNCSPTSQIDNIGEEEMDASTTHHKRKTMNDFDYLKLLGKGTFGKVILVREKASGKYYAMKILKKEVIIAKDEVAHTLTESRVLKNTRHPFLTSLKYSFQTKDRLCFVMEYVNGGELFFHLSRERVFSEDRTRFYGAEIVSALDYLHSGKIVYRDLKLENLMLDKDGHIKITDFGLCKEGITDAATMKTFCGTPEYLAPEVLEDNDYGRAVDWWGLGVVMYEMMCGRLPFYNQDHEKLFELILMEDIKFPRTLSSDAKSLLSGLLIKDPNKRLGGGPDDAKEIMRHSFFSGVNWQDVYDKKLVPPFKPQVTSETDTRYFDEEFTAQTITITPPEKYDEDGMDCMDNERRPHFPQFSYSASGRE
# [36] = biological target: GPI-anchor transamidase component GPAA1 (Homo sapiens) (UniProt O43292); note: assay method not described here
# [37] = biological target: Ribosomal protein S6 kinase alpha-4 (Homo sapiens) (UniProt O75676); note: assay method not described here
# [38] = biological target: Dolichyl-diphosphooligosaccharide--protein glycosyltransferase subunit DAD1 (Homo sapiens) (UniProt P61803); note: assay method not described here
# Dolichyl-diphosphooligosaccharide--protein glycosyltransferase subunit DAD1 (Homo sapiens), sequence (P61803 whole entry): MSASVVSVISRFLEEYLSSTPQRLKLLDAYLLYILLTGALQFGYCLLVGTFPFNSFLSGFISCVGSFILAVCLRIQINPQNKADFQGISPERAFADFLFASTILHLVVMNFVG
# [39] = biological target: Large ribosomal subunit protein uL14 (Homo sapiens) (UniProt P62829); note: assay method not described here
# [40] = biological target: Endoplasmic reticulum junction formation protein lunapark (Homo sapiens) (UniProt Q9C0E8); note: assay method not described here
# Endoplasmic reticulum junction formation protein lunapark (Homo sapiens), sequence (Q9C0E8 whole entry): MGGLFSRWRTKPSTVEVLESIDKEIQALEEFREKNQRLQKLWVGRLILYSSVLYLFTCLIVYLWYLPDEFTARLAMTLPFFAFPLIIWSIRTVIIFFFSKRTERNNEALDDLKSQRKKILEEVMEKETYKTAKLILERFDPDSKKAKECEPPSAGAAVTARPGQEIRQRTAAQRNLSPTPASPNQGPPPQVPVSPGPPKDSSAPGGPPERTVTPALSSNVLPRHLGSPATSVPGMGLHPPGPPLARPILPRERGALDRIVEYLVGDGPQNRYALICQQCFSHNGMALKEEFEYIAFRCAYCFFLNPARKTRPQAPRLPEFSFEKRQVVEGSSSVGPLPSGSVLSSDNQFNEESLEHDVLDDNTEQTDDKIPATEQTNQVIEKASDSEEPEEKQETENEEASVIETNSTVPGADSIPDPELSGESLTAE
# Histone acetyltransferase type B catalytic subunit (Homo sapiens), sequence (O14929 2-419 limits assumed): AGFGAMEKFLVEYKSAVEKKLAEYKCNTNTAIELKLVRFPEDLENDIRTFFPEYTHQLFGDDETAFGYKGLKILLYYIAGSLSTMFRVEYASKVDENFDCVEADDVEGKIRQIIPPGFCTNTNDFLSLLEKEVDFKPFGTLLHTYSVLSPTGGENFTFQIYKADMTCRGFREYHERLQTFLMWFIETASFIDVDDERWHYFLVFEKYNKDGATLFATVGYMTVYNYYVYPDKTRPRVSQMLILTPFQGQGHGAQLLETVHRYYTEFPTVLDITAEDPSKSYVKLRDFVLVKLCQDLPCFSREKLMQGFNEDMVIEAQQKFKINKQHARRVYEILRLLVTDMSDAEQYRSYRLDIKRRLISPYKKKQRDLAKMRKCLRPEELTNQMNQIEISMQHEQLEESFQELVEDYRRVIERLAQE
compound,measurement,setting,value
Cc1ccc(C(=O)Nc2cccc(C(F)(F)F)c2)cc1Nc1nc(-c2cccnc2)nc2c1cnn2C,ED50,[1],0.00615 µM
same,ED50,[2],11 µM
same,ED50,[3],0.183 µM
same,IC50,Ephrin type-B receptor 4,0.003 µM
same,ED50,[4],41.5 µM
same,ED50,[5],0.0339 µM
same,ED50,[6],10.4 µM
same,ED50,[7],0.167 µM
same,ED50,[8],0.000606 µM
same,ED50,[9],11.5 µM
same,ED50,[10],30.7 µM
same,ED50,[11],0.00551 µM
same,ED50,[12],48.7 µM
same,ED50,[13],0.122 µM
same,ED50,[14],0.00564 µM
same,ED50,Cyclin-T2 (Homo sapiens),12.8 µM
same,ED50,[15],0.39 µM
same,ED50,[16],0.0605 µM
same,ED50,[17],32000 µM
same,ED50,[18],0.655 µM
same,ED50,[19],73.3 µM
same,IC50,Ephrin type-B receptor 3,0.006 µM
same,ED50,[20],93.1 µM
same,ED50,[21],7.31 µM
same,ED50,[22],3.75 µM
same,ED50,[23],0.00186 µM
same,ED50,[24],1.23 µM
same,ED50,[25],0.162 µM
same,ED50,[26],26.2 µM
same,ED50,[27],8.96 µM
same,IC50,Ephrin type-B receptor 2,0.0025 µM
same,ED50,[28],0.0037 µM
same,ED50,[29],0.144 µM
same,ED50,[30],0.00127 µM
same,ED50,[31],7.96 µM
same,ED50,[32],4.94 µM
same,ED50,[33],6.35 µM
same,ED50,[34],4.7 µM
same,ED50,[35],0.0059 µM
same,ED50,[36],56.5 µM
same,ED50,[37],0.0142 µM
same,ED50,[38],14 µM
same,ED50,[39],11.7 µM
same,ED50,[40],15.5 µM
Cc1ccc(C(=O)Nc2cccc(C(F)(F)F)c2)cc1Nc1nc(-c2cccnc2)nc2nn(C)cc12,ED50,[1],10.6 µM
same,ED50,[2],0.00583 µM
same,ED50,[3],0.0527 µM
same,IC50,Ephrin type-B receptor 4,1.66 µM
same,ED50,[4],1530 µM
same,ED50,[5],0.0717 µM
same,ED50,[6],9.78 µM
same,ED50,[7],0.151 µM
same,ED50,[8],10.1 µM
same,ED50,[9],0.434 µM
same,ED50,[10],32.9 µM
same,ED50,[11],0.318 µM
same,ED50,[12],0.000187 µM
same,ED50,[13],0.139 µM
same,ED50,[14],2.75 µM
same,ED50,Cyclin-T2 (Homo sapiens),0.0632 µM
same,ED50,[15],8.58 µM
same,ED50,[16],19.6 µM
same,ED50,[17],0.175 µM
same,ED50,[18],0.00935 µM
same,ED50,[19],0.0763 µM
same,IC50,Ephrin type-B receptor 3,0.191 µM
same,ED50,[20],191 µM
same,ED50,[21],0.291 µM
same,ED50,[22],2.07 µM
same,ED50,[23],0.0878 µM
same,ED50,[24],0.137 µM
same,ED50,[25],0.00734 µM
same,ED50,[26],0.047 µM
same,ED50,[27],1.02 µM
same,IC50,Ephrin type-B receptor 2,0.63 µM
same,ED50,[28],348 µM
same,ED50,[29],0.0181 µM
same,ED50,[30],0.869 µM
same,ED50,[31],145 µM
same,ED50,[32],0.0533 µM
same,ED50,[33],36.4 µM
same,ED50,[34],0.0354 µM
same,ED50,[35],3.14 µM
same,ED50,[36],0.841 µM
same,ED50,[37],0.154 µM
same,ED50,[38],32.9 µM
same,ED50,[39],7.5 µM
same,ED50,[40],0.287 µM
